According to the NIST ThermoML archive (doi:10.1016/j.tca.2010.06.003):
Numbers after ± are expanded uncertainties.

Conditions: for Normal melting temperature: Crystal; for Triple point temperature: Crystal 2, DTA

SMILES | Normal melting temperature [°C] | Triple point temperature [K]
O=[N+]([O-])[O-].[K+] [potassium nitrate] | 333.6 ± 2 | 405.6 ± 0.5
O=[N+]([O-])[O-].[Na+] [sodium nitrate] | 306.5 ± 2 | 545.5 ± 0.5
